Reference: US20200093835A1, “METHODS OF TREATING VESTIBULAR SCHWANNOMA” (Massachusetts Eye and Ear Infirmary, priority 2017, published 2020)

How the values were obtained:
[1] = system: HEI-193 human schwannoma cells; assay: Metabolic activity (MTT) assay, HEI-193; type: cell-based; conditions: for HEI-193 cell metabolic activity: 72 h; for metabolic activity of HEI-193 cells: preliminary testing, clinically reasonable concentrations
Method: (§1) HEI-193 cells are derived from a patient with sporadic bilateral vestibular schwannomas and a history of meningioma; these cells express a splice variant of the merlin protein (encoded by the NF2 gene), but neither typical isoform^52. HEI-193 cells were cultured in DMEM/F12-containing medium with 10% fetal bovine serum and 1% penicillin and streptomycin mix as described above. Immortalized NF2-null and NF2-expressing arachnoid AC-CRISPR cell lines derived from primary human autopsy specimens were obtained via generous gift from Dr. Vijaya Ramesh at Massachusetts General Hospital^40. NF2-null and NF2-expressing arachnoid cells were cultured in DMEM with 15% fetal bovine serum and 1% penicillin and streptomycin mix. All cell lines were maintained in an incubator at 37 degrees Celsius with 5% carbon dioxide and treated with drugs 24-36 hours after seeding at between 15,000-25,000 cells per well in 24-well plates. Phase contrast photos of healthy and drug-treated cultures were taken at 10× magnification on an IncuCyte S3 instrument (Essen Bio).
Cultures were incubated with drug-containing medium or 0.1% DMSO vehicle for 72 hours and then processed for downstream applications.
The metabolic activity of primary VS and HEI-193 cells was assessed using the colorimetric 3-(4,5-dimethylthiazol-2-yl)-2,5-diphenyltetrazolium bromide (MTT) assay (Life Technologies). After 72-hour incubation of cells in a 24-well plate with medium containing drug or vehicle, culture medium was replaced with 362 μL of colorless DMEM and 38 μL of 12 mM MTT in 3-6 random wells. Cells were incubated for an additional 4 hours. The resulting formazan crystals were dissolved in 380 μL of a solution of 100 mg/mL sodium dodecyl sulfate in 0.01 M HCl and incubated for another 4 hours. Optical density (OD) at 570 nm of each well was detected using a spectrophotometer. The average OD value of cells exposed to vehicle (0.1% DMSO) was set to 100% and used to normalize OD values of cells treated with drugs; metabolic activity was then reported as percent change. Statistical testing was performed on raw OD values (see Statistical Methods).

[2] = in vivo; cited from earlier work
[3] = system: primary human VS cells; assay: Proliferation assay (BrdU incorporation), primary VS cells
[4] = system: HEI-193 cells; assay: Proliferation assay (BrdU incorporation), HEI-193; type: cell-based, human; conditions: 35 μM, 72 h; p=0.0007
Method: 5′bromo-2′-deoxyuridine (BrdU) was added to label proliferating cells in culture 2 hours before fixation in 4% formalin (paraformaldehyde). Cell membranes were permeabilized with 10 minutes of incubation in 1% Triton X-100 and nuclear membranes with 20 minutes in 2N hydrochloric acid (HCl). Cells were blocked in 5% normal horse serum (NHS) and 1% Triton X-100 and incubated with a primary antibody against BrdU (# OBT0030G, AbD Serotec) overnight, followed by incubation with fluorescent anti-rat immunoglobulin G (AlexaFluor, Life Technologies).

[5] = system: HEI-193 cells; assay: TUNEL assay, HEI-193; type: cell-based, human; conditions: 72 h, versus vehicle
[6] = system: AC-CRISPR NF2(−/−) and AC-CRISPR NF2(+/+) human arachnoid cells; assay: Metabolic viability, arachnoid cells versus schwannoma cells; type: cell-based
Method: as §1
(§2) The metabolic activity of primary VS and HEI-193 cells was assessed using the colorimetric 3-(4,5-dimethylthiazol-2-yl)-2,5-diphenyltetrazolium bromide (MTT) assay (Life Technologies). […] Optical density (OD) at 570 nm of each well was detected using a spectrophotometer. […]

[7] = system: HEI-193 cells; assay: Flow cytometry, annexin V/propidium iodide staining; type: cell-based, human; conditions: 35 μM, 72 h, versus vehicle
Method: Apoptotic cell death was assessed using an Annexin V/propidium iodide (PI) staining kit (Miltenyi Biotec). […] Adherent cells were collected by trypsinization, and non-adherent (floating) cells were collected from culture medium. Cells were centrifuged, washed in PBS, and incubated in 1× annexin binding buffer, annexin V-fluorescein isothiocyanate (FITC), and propidium iodide (PI) according to the manufacturer's recommendations. Stained cells were immediately analyzed using a Cytomics FC500 flow cytometer. Data were analyzed using CXP Analysis software (version 2.2, Coulter).

[8] = system: HEI-193 cells; assay: Caspase 3/7 activation by live-cell imaging, HEI-193; type: cell-based, human; conditions: 70 μM and 35 μM, over 100 h, versus vehicle
[9] = system: HEI-193 cells; assay: Cell confluence and phase contrast imaging (IncuCyte), HEI-193; type: cell-based, human
Method: as §1, with “All cell lines were maintained in an incubator at 37 degrees Celsius with 5% carbon dioxide and treated with drugs 24-36 hours after seeding at between 15,000-25,000 cells per well in 24-well plates. Phase contrast photos of healthy and drug-treated cultures were taken at 10× magnification on an IncuCyte S3 instrument (Essen Bio).” left out
Cytotoxicity and cell confluence were measured using live-cell, time-lapse phase contrast and fluorescence imaging acquired at 10× by an IncuCyte S3 instrument (Essen Bioscience). Cytotoxicity was measured by incorporation of IncuCyte Cytotox Reagent (Essen Bioscience), applied according to manufacturer's instructions; the reagent fluoresces when it binds DNA after compromise of membrane integrity. […] Phase object confluence was measured using time-lapse phase contrast imaging acquired at 10× by the same instrument, analyzing 9 images per well every 2 hours for 72 hours, and is reported as percent confluence per square millimeter.

[10] = system: HEI-193 cells; assay: Cell cycle analysis; type: cell-based, human; conditions: 72 h treatment
Method: Harvested HEI-193 cells were washed in PBS and fixed in cold 70% ethanol at −20° C. for 18-72 h. Before staining with propidium iodide (PI), cells were centrifuged and washed again in cold PBS. 2×10^6 or fewer cells were incubated with 500 μl staining solution [0.1% Triton X-100 (Sigma), 2 mg/ml RNase A (Qiagen), and 1 μg/ml PI (Miltenyi Biotec) in PBS] for 15 minutes at 37° C. In order to exclude DNAse activity, RNase A was boiled for 5 minutes and cooled down before its addition to staining solution. Cells were analyzed on a Cytomics FC500 flow cytometer using CXP Analysis software (version 2.2, Coulter).

[11] = system: primary human VS cells; assay: Metabolic activity (MTT) assay, primary VS cells; type: cell-based
Method: Written informed consent was obtained from all subjects prior to inclusion in this study and all procedures were conducted in accordance with the Helsinki Declaration of 1975. Detailed methods for human surgical specimen collection, processing, and culture are previously published^38. VS specimens were harvested from patients undergoing surgical tumor resection, and GAN specimens from healthy patients undergoing benign parotidectomy or neck dissection surgery, during which the GAN is routinely sacrificed. Patients who had received radiation therapy prior to surgery were excluded.
Briefly, after surgical resection, VS or GAN tissue was immediately placed in saline solution and transported to the laboratory on ice. Specimens were rinsed with Hank's Balanced Salt Solution (HBSS, ThermoFisher Scientific), dissected to remove burned tissue and blood vessels, and separated for RNA preservation (RNALater, ThermoFisher Scientific) or primary cell culture. […]
as §2

[12] = system: unresectable meningioma; conditions: cited from earlier work
[13] = system: primary human VS cells; assay: Cytotoxicity assay (IncuCyte Cytotox Reagent), primary VS cells; type: cell-based; conditions: 35 μM, 72 hours, live cell fluorescence microscopy
Method: Cytotoxicity and cell confluence were measured using live-cell, time-lapse phase contrast and fluorescence imaging acquired at 10× by an IncuCyte S3 instrument (Essen Bioscience). Cytotoxicity was measured by incorporation of IncuCyte Cytotox Reagent (Essen Bioscience), applied according to manufacturer's instructions; the reagent fluoresces when it binds DNA after compromise of membrane integrity. Nine images were acquired per well every 2 hours for 72 hours, and cytotoxicity at each time point is reported as number of fluorescent objects per well, after thresholding to avoid the inclusion of small cellular debris. Phase object confluence was measured using time-lapse phase contrast imaging acquired at 10× by the same instrument, analyzing 9 images per well every 2 hours for 72 hours, and is reported as percent confluence per square millimeter.

[14] = system: HEI-193 cells; assay: ELISA for progesterone in conditioned cell culture medium; type: cell-based, human; conditions: 35 μM versus 0.1% DMSO vehicle; p=0.08
Method: Cell-conditioned medium was collected from mifepristone-treated and untreated HEI-193 cells after 72-hour incubation with the drug. Enzyme-linked immunosorbent assay (ELISA) was performed on each sample in triplicate to assess the quantity of progesterone in cell-conditioned medium, according to the manufacturer's protocol (Enzo Life Science, # ADI-900-011). Data were analyzed using GraphPad Prism 7 software licensed through Harvard Medical School.

[15] = system: HEI-193 cells; assay: Phalloidin staining of f-actin, HEI-193; type: cell-based, human; conditions: 35 μM, 72 hours
[16] = system: primary human Schwann cells; assay: Metabolic activity (MTT) assay, primary Schwann cells; type: cell-based; conditions: p=0.23
[17] = system: primary VS cells; assay: Cell death (TUNEL) assay, primary VS cells; type: cell-based, human; conditions: 25 μM, 72 h

Molecule: Nc1ncnc2c1ncn2[C@@H]1O[C@H](COP(=O)(O)O)[C@@H](O)[C@H]1O [ADENOSINE MONOPHOSPHATE, ADENOSINE, adenosine monophosphate]
- HEI-193 cell metabolic activity ([1]; 5, 10, and 15 μM): no significant effect
- metabolic activity of HEI-193 cells [1]: no effect

Molecule: C[C@H]1C[C@@H]2[C@H]([C@@H](O)C[C@@]3(C)[C@H]2CC[C@]3(O)C(=O)CO)[C@@]2(C)C=CC(=O)C=C12 [methylprednisolone]
- HEI-193 cell metabolic activity ([1]; 27 μM): no significant effect
- metabolic activity of HEI-193 cells [1]: no effect

Molecule: CC#C[C@]1(O)CC[C@H]2[C@@H]3CCC4=CC(=O)CCC4=C3[C@@H](c3ccc(N(C)C)cc3)C[C@@]21C [mifepristone, 11β-(4-dimethylaminophenyl)-17β-hydroxy-17α-(1-propynyl)-estra-4,9-dien-3-one]
- blood-brain barrier crossing [2]: able to cross the blood-brain barrier
- BrdU incorporation in primary VS cells ([3]; 35 μM, p=0.0002): significant decline
- percentage of BrdU+ HEI-193 cells [4]: significantly declines
- number of TUNEL positive cells [5]: no statistically significant difference
- metabolic viability, schwannoma cells compared with arachnoid cells [6]: reduces the metabolic viability of schwannoma cells more significantly
- early apoptotic cells (annexin V/propidium iodide) [7]: slight but not significant increase
- caspase 3/7 activity [8]: slight but not significant elevation
- metabolic viability of HEI-193 cells ([1]; MTT, 72 h in culture, vehicle vs 35 μM p=0.006): decreases with increasing concentration
- phase object confluence ([9]; 35 μM, 72 hours): remains constant
- cell shape under treatment ([9]; phase contrast, FIG. 2C): long, thin, spindle-like shape
- phase of cell cycle [10]: no significant differences
- metabolic activity of primary VS cells ([11]; MTT, ten tumors, vehicle vs 35 μM p=0.002): declines with increasing concentrations
- outcome versus placebo ([12]; double-blind, randomized Phase III trial of 164 patients): no difference between treatment and placebo
- patients with minor responses resulting in clinical benefit ([12]; long-term clinical trial, unresectable meningioma): eight of 28
- cytotoxicity of VS cells [13]: significant increase
- progesterone in culture medium [14]: increase in progesterone in culture medium
- f-actin morphology (phalloidin staining) [15]: crumpled f-actin morphology
- metabolic viability of primary human Schwann cells [16]: does not adversely affect

Molecule: C[C@]12C=CC(=O)C=C1CC[C@@H]1[C@@H]2[C@@H](O)C[C@@]2(C)[C@H]1CC[C@]2(O)C(=O)CO [prednisolone]
- proliferation of primary VS cells ([3]; 25 μM, 72 h): no effect
- HEI-193 cell metabolic activity ([1]; 25 μM): no significant effect
- metabolic activity of primary VS cells ([11]; 25 μM, 72 h): modest effect
- elevation in cell death among primary VS cells versus vehicle [17]: 15.85%

Molecule: O=C(O)[C@@H](S)[C@@H](S)C(=O)O [succimer]
- HEI-193 cell metabolic activity ([1]; 25, 50, and 100 μM): no significant effect
- metabolic activity of HEI-193 cells [1]: no effect

Molecule: gold sodium thiomalate
- HEI-193 cell metabolic activity ([1]; 25, 50, 100, and 300 μM): significant effect on HEI-193 cell metabolic activity, but only at clinically unreasonable concentrations
- metabolic activity of HEI-193 cells [1]: no effect
